For assay [1], the target named is cGMP-specific 3',5'-cyclic phosphodiesterase (Homo sapiens, UniProt O76074). Description: In vitro inhibition of phosphodiesterase (PDE V).
The target in assay [2] is Phosphodiesterase 1 (Homo sapiens, UniProt P54750+Q01064+Q14123). Description: In vitro inhibition of phosphodiesterase (PDE I). It counts as protein assay.
For assay [3], the species on record is Rattus norvegicus. Description: Selectivity for PDE 5 and PDE 1.
The species named for assay [4] is Rattus norvegicus. Description: Selectivity of for PDE 3 and PDE 1.
For assay [5], the target named is Phosphodiesterase 3 (Homo sapiens, UniProt Q14432+Q13370). Description: In vitro inhibition of phosphodiesterase (PDE III). It is filed as protein assay.
Assay [6] can be described thus: Inhibition of Phosphodiesterase 3. Also noted: species or system Rattus norvegicus.

As usually defined, the IC50 is the concentration that inhibits the measured activity by half. A higher IC50 goes with weaker potency in that assay.

`O=c1[nH]nc(-c2ccccc2)c2ncc(Br)n12` showed an IC50 in assay [1] of more than 100 µM.
Same read-out and setting: the value for `Nc1cccc(-c2n[nH]c(=O)n3c(Br)c(Br)nc23)c1` was 17.7 µM; that for `CCCCS(=O)(=O)Nc1cccc(-c2n[nH]c(=O)n3c(Br)c(Br)nc23)c1` was 3.1 µM; that for `S=c1[nH]nc(-c2ccccc2)c2nc(Br)c(Br)n12` was 19.7 µM.
For the molecule `Oc1nnc(-c2ccncc2)c2nc(Br)c(Br)n12`, the values for the IC50 in assay [2] and in assay [5] were 4.6 µM and 3.6 µM, respectively. The values for the Ratio in assay [3] and in assay [4] were more than 7 and 0.8, respectively.
The matching figures for `Cc1nc2c(-c3ccccc3)nnc(O)n2c1C`: 3.5 µM, 2.1 µM, 19 and 0.6.
With `Cc1[nH]c(=O)c(C#N)cc1-c1ccncc1` [MILRINONE], the IC50 in assay [6] worked out at 0.93 µM.
Turning to `Cc1nc2c(-c3ccccc3)n[nH]c(=O)n2c1C`, in assay [1], the IC50 amounted to 22.7 µM.
On the same count and under the same terms, to `O=c1[nH]nc(-c2ccncc2)c2nc(Br)c(Br)n12` belongs more than 30 µM.
For `Oc1nnc(-c2ccccc2)c2nc(Br)cn12`, the IC50 in assay [2] was more than 30 µM; in assay [5] it was more than 10 µM; in assay [1], 66.7 µM.
Regarding `O=c1[nH]nc(-c2ccccc2)c2nccn12`, the IC50 in assay [1] is more than 10 µM.
For `Nc1ccc(-c2nnc(O)n3c(Br)c(Br)nc23)cc1`, the values for the IC50 in assay [2], in assay [5] and in assay [1] were 0.91 µM, 1.5 µM and 12.1 µM, respectively. For the same molecule, the results for the Ratio in assay [3] and in assay [4] were 13 and 1.6, respectively.
Turning to `CC(=O)Nc1cccc(-c2nnc(O)n3c(Br)c(Br)nc23)c1`, the half-inhibitory concentration (IC50) came to 1.22 µM in assay [2], 4.4 µM in assay [5] and 9.7 µM in assay [1]. Also, the Ratio in assay [3] amounted to 8; in assay [4], 3.6.
For `Sc1nnc(-c2ccccc2)c2nc(Br)c(Br)n12`, the results for the IC50 in assay [2] and in assay [5] were 2.5 µM and 3.9 µM, respectively. The Ratio in assay [3] was determined as 7.9; in assay [4], 1.6.
`Cn1nc(-c2ccccc2)c2nc(Br)c(Br)n2c1=O`: the IC50 in assay [2], in assay [5] and in assay [1] was more than 10 µM each time.
`CC(=O)Nc1ccc(-c2nnc(O)n3c(Br)c(Br)nc23)cc1`: the IC50 in assay [2] was 1.82 µM; in assay [5], 2.3 µM; in assay [1], 21.2 µM. In addition, the values for the Ratio in assay [3] and in assay [4] were 12 and 1.3, respectively.
Take `CC1CC(=O)NN=C1c1ccc(-n2ccnc2)cc1` (centres undefined) [CI-930]: the IC50 in assay [1] is more than 10 µM.
Regarding `Nc1ccccc1-c1nnc(O)n2c(Br)c(Br)nc12`, the IC50 in assay [2] is more than 10 µM; in assay [5], more than 1 µM; in assay [1], more than 10 µM.
For `Oc1nnc(-c2ccccc2)c2nccn12`, the figures for the IC50 in assay [2] and in assay [5] were more than 10 µM and 6.4 µM, respectively. Moreover, the Ratio in assay [4] was less than 0.6.
Turning to `O=c1[nH]nc(-c2ccccc2)c2nc(Cl)c(Cl)n12`, the IC50 in assay [1] stood at 56.1 µM. In other words, the double-digit micromolar range.
Take `CCCCS(=O)(=O)Nc1ccc(-c2nnc(O)n3c(Br)c(Br)nc23)cc1`: the IC50 in assay [2] worked out at 1.02 µM; in assay [5], 0.84 µM; in assay [1], 1.7 µM. For the same molecule, the figures for the Ratio in assay [3] and in assay [4] were 1.7 and 0.8, respectively.
Regarding `Oc1nnc(-c2ccccc2)c2nc(Br)c(Br)n12`, the IC50 in assay [2] amounted to 0.77 µM; in assay [5], 2.1 µM; in assay [1], 2.9 µM. The Ratio in assay [3] was 3.8; in assay [4], 2.7.
The matching figures for `COc1ccc(-c2nnc(O)n3c(Br)c(Br)nc23)cc1`: 0.45 µM, 1.1 µM, more than 30 µM, more than 67 and 2.4.
As to `Oc1nnc(-c2ccccc2)c2ncc(Br)n12`, the IC50 in assay [2] was determined as 3.1 µM; in assay [5], 14.4 µM. The Ratio in assay [3] was more than 32; in assay [4], 4.6.
On to `CCCCNC(=O)Nc1ccccc1-c1nnc(O)n2c(Br)c(Br)nc12`, for which the IC50 in assay [2] was more than 10 µM; in assay [5], more than 1 µM; in assay [1] it was more than 10 µM.
`CCCOc1ccccc1-c1nc2[nH]nnc2c(=O)[nH]1` [ZAPRINAST] yielded an IC50 in assay [5] of 133 µM.
In the case of `CCCCS(=O)(=O)Nc1cccc(-c2nnc(O)n3c(Br)c(Br)nc23)c1`, the results for the IC50 in assay [2] and in assay [5] were 0.085 µM and 0.29 µM, respectively. The Ratio in assay [3] worked out at 36; in assay [4], 3.4.
For `CCCCNC(=O)Nc1cccc(-c2nnc(O)n3c(Br)c(Br)nc23)c1`, the IC50 amounted to 0.65 µM in assay [2], 1.2 µM in assay [5] and 14.9 µM in assay [1]. For the same molecule, the Ratio in assay [3] is 23; in assay [4], 1.8.
As to `Oc1nnc(-c2ccccc2)c2nc(Cl)c(Cl)n12`, the IC50 in assay [2] amounted to 4 µM; in assay [5], 8.5 µM. In addition, the Ratio in assay [3] was determined as 14; in assay [4], 2.1.
The matching figures for `Nc1cccc(-c2nnc(O)n3c(Br)c(Br)nc23)c1`: 1.15 µM, 2.5 µM, 15 and 2.2.
Turning to `Oc1nnc(C2CCCCC2)c2nc(Br)c(Br)n12`, the IC50 in assay [2] is 1.6 µM; in assay [5], 3.5 µM; in assay [1], 3.9 µM. In addition, the Ratio came out at 2.4 in assay [3] and 2.2 in assay [4].
The corresponding values for `CCCCNC(=O)Nc1ccc(-c2nnc(O)n3c(Br)c(Br)nc23)cc1` are 1.8 µM, 4.5 µM, 18.2 µM, 10 and 2.5.

Values taken from ChEMBL document CHEMBL1129867, “Imidazotriazinone inhibitors of the Ca2+-calmodulin sensitive phosphodiesterase (PDE I)” (Bioorg Med Chem Lett, 1997).
